Experimental data: ChEMBL document CHEMBL1201862, “PubChem BioAssay data set” (2004)
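Growth conditions: 96-well plates. Treatment: test compound, 48 hours, 5 concentrations. Analysis: linear interpolation between bracketing concentrations; unreached endpoints set to highest concentration. GI50 is the concentration that inhibits growth by half.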 Calls of active or inactive are those of the source. Cut-off read from the data, not from the text of the source: active = GI50 up to about 1.1 µM and inactive = higher.

Key:
Assay in all cases: inhibition of tumour cell growth, NCI panel, 48 h
ACHN = test system: ACHN
BT-549 = test system: BT-549
CCRF-CEM = test system: CCRF-CEM
HCT-116 = test system: HCT-116
KM12 = test system: KM12
LOX IMVI = test system: LOX IMVI
MDA-MB-231 = test system: MDA-MB-231
MDA-MB-435 = test system: MDA-MB-435
MDA-N = test system: MDA-N
MOLT-4 = test system: MOLT-4
NCI-H23 = test system: NCI-H23
NCI-H522 = test system: NCI-H522
OVCAR-8 = test system: OVCAR-8
SK-MEL-5 = test system: SK-MEL-5
SNB-19 = test system: SNB-19
SNB-75 = test system: SNB-75
SR = test system: SR
SW-620 = test system: SW-620
UACC-257 = test system: UACC-257
Malme-3M = test system: Malme-3M

Measured: GI50

CCCCCCOc1ccc(C(=O)NOC)cc1
inactive: ACHN > 100 µM | BT-549 82.8 µM | CCRF-CEM > 100 µM | HCT-116 > 100 µM | KM12 > 100 µM | LOX IMVI > 100 µM | MDA-MB-231 80.5 µM | MDA-MB-435 > 100 µM | MDA-N > 100 µM | MOLT-4 24.8 µM | NCI-H23 > 100 µM | NCI-H522 > 100 µM | OVCAR-8 > 100 µM | SK-MEL-5 > 100 µM | SNB-19 > 100 µM | SNB-75 > 100 µM | SR 62.5 µM | SW-620 > 100 µM | UACC-257 > 100 µM

CNc1ncccc1Nc1cc(=O)n2c3cccnc3n(C)c2c1
inactive: ACHN > 100 µM | BT-549 > 100 µM | CCRF-CEM > 100 µM | HCT-116 > 100 µM | KM12 > 100 µM | LOX IMVI > 100 µM | MDA-MB-231 13.7 µM | MDA-MB-435 > 100 µM | MDA-N > 100 µM | MOLT-4 > 100 µM | NCI-H23 74.6 µM | NCI-H522 61 µM | OVCAR-8 > 100 µM | SK-MEL-5 > 100 µM | SNB-19 40.9 µM | SNB-75 24.9 µM | SR > 100 µM | SW-620 > 100 µM | UACC-257 > 100 µM

Nc1ccc2nc3n(c(=O)c2c1)CCCCC3
inactive: ACHN > 100 µM | BT-549 89.9 µM | CCRF-CEM > 100 µM | HCT-116 > 100 µM | KM12 > 100 µM | LOX IMVI > 100 µM | MDA-MB-231 > 100 µM | MDA-MB-435 > 100 µM | MDA-N > 100 µM | MOLT-4 > 100 µM | Malme-3M > 100 µM | NCI-H23 > 100 µM | NCI-H522 > 100 µM | OVCAR-8 > 100 µM | SK-MEL-5 > 100 µM | SNB-75 > 100 µM | SR > 100 µM | SW-620 > 100 µM | UACC-257 > 100 µM

CC(=O)C1(O)CCC2(O)C3(O)CC=C4CC(O)CCC4(C)C3CC(OC(=O)c3ccc(O)cc3)C12C (stereo not given)
inactive: ACHN > 100 µM | BT-549 > 100 µM | CCRF-CEM > 100 µM | HCT-116 > 100 µM | KM12 > 100 µM | LOX IMVI > 100 µM | MDA-MB-231 > 100 µM | MDA-MB-435 > 100 µM | MDA-N > 100 µM | MOLT-4 46.2 µM | NCI-H23 > 100 µM | NCI-H522 > 100 µM | OVCAR-8 > 100 µM | SK-MEL-5 > 100 µM | SNB-19 > 100 µM | SNB-75 > 100 µM | SR > 100 µM | SW-620 > 100 µM | UACC-257 > 100 µM

COCOc1cc(OCOC)cc(C(=O)Oc2ccccc2)c1
inactive: ACHN > 100 µM | BT-549 > 100 µM | HCT-116 > 100 µM | KM12 > 100 µM | LOX IMVI > 100 µM | MDA-MB-231 > 100 µM | MDA-MB-435 > 100 µM | MDA-N > 100 µM | MOLT-4 > 100 µM | Malme-3M > 100 µM | NCI-H23 > 100 µM | NCI-H522 48.3 µM | OVCAR-8 > 100 µM | SK-MEL-5 > 100 µM | SNB-19 > 100 µM | SNB-75 78.3 µM | SR 85.9 µM | SW-620 > 100 µM | UACC-257 > 100 µM

CCOC(=O)/C=C1\C[C@H](NC(=O)OCc2ccccc2)C(=O)N1CC(=O)OCC
inactive: ACHN > 100 µM | BT-549 > 100 µM | CCRF-CEM > 100 µM | HCT-116 > 100 µM | KM12 > 100 µM | MDA-MB-231 > 100 µM | MDA-MB-435 > 100 µM | MDA-N > 100 µM | MOLT-4 > 100 µM | Malme-3M > 100 µM | NCI-H23 > 100 µM | NCI-H522 > 100 µM | OVCAR-8 > 100 µM | SK-MEL-5 > 100 µM | SNB-19 > 100 µM | SNB-75 > 100 µM | SR > 100 µM | SW-620 > 100 µM | UACC-257 > 100 µM

N#CCCC(C=O)(CCC#N)CCC#N
inactive: ACHN > 100 µM | BT-549 > 100 µM | CCRF-CEM > 100 µM | HCT-116 > 100 µM | KM12 > 100 µM | LOX IMVI > 100 µM | MDA-MB-231 > 100 µM | MDA-MB-435 > 100 µM | MDA-N > 100 µM | Malme-3M > 100 µM | NCI-H23 > 100 µM | NCI-H522 > 100 µM | OVCAR-8 > 100 µM | SK-MEL-5 > 100 µM | SNB-19 > 100 µM | SNB-75 > 100 µM | SR > 100 µM | SW-620 > 100 µM | UACC-257 > 100 µM

C=CC(=C)CCC(Br)C(C)(C)Br (stereo not given)
inactive: ACHN > 100 µM | BT-549 > 100 µM | CCRF-CEM 22.2 µM | HCT-116 54.3 µM | KM12 > 100 µM | MDA-MB-231 4.51 µM | MDA-MB-435 > 100 µM | MDA-N > 100 µM | MOLT-4 15.6 µM | Malme-3M 41.2 µM | NCI-H23 > 100 µM | NCI-H522 15.7 µM | OVCAR-8 > 100 µM | SK-MEL-5 > 100 µM | SNB-19 > 100 µM | SNB-75 > 100 µM | SR > 100 µM | SW-620 32.4 µM | UACC-257 > 100 µM

COc1c(O)cc2oc(-c3ccc(O)cc3)cc(=O)c2c1O [HISPIDULIN]
inactive: ACHN 26.8 µM | BT-549 28.3 µM | CCRF-CEM 20.6 µM | HCT-116 35.3 µM | KM12 31.5 µM | LOX IMVI 39.2 µM | MDA-MB-231 74.5 µM | MDA-MB-435 36.3 µM | MDA-N 37.2 µM | MOLT-4 25.4 µM | Malme-3M 74.8 µM | NCI-H23 42.2 µM | NCI-H522 36.2 µM | SK-MEL-5 15.5 µM | SNB-19 56.1 µM | SNB-75 17.3 µM | SR 27.9 µM | SW-620 34.1 µM | UACC-257 > 100 µM

COc1c2c(cc3oc(=O)ccc13)OC(C)(C)C=C2 [XANTHOXYLETIN]
inactive: ACHN 27.9 µM | BT-549 25.6 µM | HCT-116 18.6 µM | KM12 19.2 µM | LOX IMVI 21.8 µM | MDA-MB-231 19.5 µM | MDA-MB-435 27.2 µM | MDA-N 29.4 µM | MOLT-4 23.8 µM | Malme-3M 30.1 µM | NCI-H23 23.6 µM | NCI-H522 21 µM | OVCAR-8 24.2 µM | SK-MEL-5 21.8 µM | SNB-19 35.6 µM | SNB-75 22 µM | SR 11.5 µM | SW-620 26.1 µM | UACC-257 31.7 µM
